# Experimental data taken from PMC10477861, “Efficient Mining of Anticancer Peptides from Gut Metagenome” (Advanced Science, 2023).
# Where no end group is shown, it is not given here.
# Key:
# [1] = test system: HT29; experiment: MTT primary screening of anticancer activity, HT29; assay type: cell-based, Human; details: 25 µM pACP, 24 h, maintenance medium 1% FBS, ratio of viability to vehicle (PBS), at least three technical repetitions
# In short: (§1)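 Single-concentration screen: cells at 60% confluence given peptide at 25 µM for 24 h in maintenance medium with 1% FBS. Viability by MTT kit; peptides with minimum effective inhibition concentration >25 µM deemed non-ACPs.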
# [2] = test system: Caco2; experiment: MTT primary screening of anticancer activity, Caco2; assay type: cell-based, Human; details: 25 µM pACP, 24 h, maintenance medium 1% FBS, ratio of viability to vehicle (PBS), at least three technical repetitions
# In short: as §1
# [3] = test system: SK-BR-3; experiment: MTT primary screening of anticancer activity, SK-BR-3; assay type: cell-based; details: 25 µM pACP, 24 h, maintenance medium 1% FBS, ratio of viability to vehicle (PBS), at least three technical repetitions
# In short: as §1
# [4] = test system: B16; experiment: MTT primary screening of anticancer activity, B16; assay type: cell-based, Mouse; details: 25 µM pACP, 24 h, maintenance medium 1% FBS, ratio of viability to vehicle (PBS), at least three technical repetitions
# In short: as §1
# [5] = test system: MCF7; experiment: MTT primary screening of anticancer activity, MCF7; assay type: cell-based; details: 25 µM pACP, 24 h, maintenance medium 1% FBS, ratio of viability to vehicle (PBS), at least three technical repetitions
# In short: as §1
# [6] = test system: CT26; experiment: MTT concentration gradient and CC50 against CT26; assay type: cell-based, Murine; details: CT26 cells, calculated with aatbio IC50 calculator from the concentration gradient
# Protocol: (§2) To evaluate the translational relevance of our methodology, we selected these two pACPs for in vivo studies. […] Subcutaneous tumors were established using CT26 cells in athymic nude mice, and the animals were randomized to receive two intratumoral injections of 0.80 mg kg^−1 pACP2283, 0.51 mg kg^−1 pACP1780, or PBS control on day 0 and day 2. The dosage of pACPs was calculated as five times the CC50 of each compound in CT26 cells. Tumor size was monitored daily for six days (Figure 3c).
# To evaluate the activity of the 40 potentially effective pACPs, a panel of 16 cancer cell lines was treated, including human CRC cell lines (HT29, Caco‐2, HCT116). Details of the cell lines used, respective media, and culture conditions were presented in Table S1 (Supporting Information). Once the cells reached 60% confluence, it was incubated with each candidate peptide at a concentration of 25 µM pACPs for 24 h. Concurrently, the complete medium was replaced with a maintenance medium containing only 1% FBS. Subsequently, the viability of each cell line using the MTT Cell Proliferation and Cytotoxicity Assay Kit according to the manufacturer's instructions was assessed. […] For the CRC cell line CT26, it was calculated the CC50 value using two peptides (pACP1780 and pACP2283) with relevant data presented in Table S6 (Supporting Information). […]
# [7] = test system: CT26 subcutaneous tumors; experiment: CT26 subcutaneous xenograft tumor model in nude mice; assay type: in vivo; design: Mean Diff, tumor volume growth, Control vs. peptide (Dunnett's multiple comparisons test): unit not given here; details: for tumor size compared to control-treated animals: CT26 subcutaneous tumors, athymic nude mice, two intratumoral injections (day 0, day 2), monitored six days, p <0.05; for tumor size compared to control-treated animals / signs of acute toxicity in tumor-bearing mice / survival of treated mice: 0.80 mg kg-1 pACP2283 or 0.51 mg kg-1 pACP1780; for Mean Diff, tumor volume growth, Control vs. peptide (Dunnett's multiple comparisons test): CT26 tumors in nude mice, intratumoral pACP1780 0.51 mg kg-1 or pACP2283 0.80 mg kg-1 on day 0 and day 2, six mice per group; for signs of acute toxicity in tumor-bearing mice / survival of treated mice: athymic nude mice with CT26 tumors, two intratumoral injections
# Protocol: as §2
# Six‐week‐old female nude mice were obtained from Beijing HFK Bioscience Co., Ltd. and were acclimated to the laboratory environment for one‐week prior to the commencement of the experiments. All experimental procedures were conducted in a manner that minimized discomfort, distress, and pain to the animals. Mice were group‐housed, with a maximum of five animals per cage, under a light‐dark cycle of 12 h, with a constant temperature of 21–22°C and humidity of 55 ± 5%. They were provided with standard rodent chow and water ad libitum. The Ethics Committee of the Institute of Microbiology, Chinese Academy of Sciences approved all procedures (SQIMCAS2021005).
# Murine colorectal carcinoma cell line CT26 was cultured in RPMI‐1640 medium supplemented with 10% fetal bovine serum and 1% penicillin/streptomycin at 37°C and 5% CO2. Tumor formation was induced by injecting was 5×106 ml^−1 CT26 cells into the right forelimb of each mouse. All mice were housed in the same environment with sufficient food and water. Throughout the study, the survival status and tumor progression of the mice on a daily basis were observed. The mice were randomly divided into three groups and received different treatments. CT26 cells were injected on […] for all groups. On Day 0, ACPs (pACP1780: 0.51 mg kg^−1 and pACP2283: 0.80 mg kg^−1) were intratumorally injected, while the Control group received an intratumoral injection of the same volume of PBS. On Day 2, the ACPs were intratumorally injected again, and the Control group received an injection of the same volume of PBS.
# [8] = test system: tumor-free mice; experiment: Acute toxicity in tumor-free mice; assay type: in vivo; details: for growth rate of body weight: after injection into the abdomen at 50 mg kg-1, gradually recovered over the next five days; for symptoms of illness or body weight loss, acute toxicity: injected into the abdomen at 2, 10 and 50 mg kg-1 over three days, up to 50 mg kg-1
# Protocol: Furthermore, we investigated the safety of pACP2283 and pACP1780 both in vivo and in vitro. […] Additionally, we conducted an acute toxicity experiment in tumor‐free mice by administering pACPs with increasing concentrations into the abdomen. […] This temporary decrease in body weight growth rate may be attributed to the high concentrations of pACPs, which temporarily disturbed the mice's homeostasis.
# To assess the toxicity of pACP1780 and pACP2283 at the cellular level, HEK293 cells were grown to 60% confluence in complete medium (10% FBS) for 24 h, and then treated with increasing concentrations (1.5, 3, 6, 12.5, 25, 50, and 100 µM) of each pACPs in maintenance medium (1% FBS) for 24 h. The viability of HEK293 cells was determined using the MTT Cell Proliferation and Cytotoxicity Assay Kit following the manufacturer's instructions. For acute toxicity in tumor‐free mice, the pACPs were injected into the abdomen at increasing concentrations of 2, 10, and 50 mg kg^−1 of mouse weight over three days, and the body weights were recorded throughout the process.
Sequence,Survival rate of cancer cells in primary screening [1],Survival rate of cancer cells in primary screening [2],Survival rate of cancer cells in primary screening [3],Survival rate of cancer cells in primary screening [4],Survival rate of cancer cells in primary screening [5],CC50 [6],tumor size compared to control-treated animals [7],"Mean Diff, tumor volume growth, Control vs. peptide (Dunnett's multiple comparisons test) ([7]; Day 0)","Mean Diff, tumor volume growth, Control vs. peptide (Dunnett's multiple comparisons test) ([7]; Day 1)","Mean Diff, tumor volume growth, Control vs. peptide (Dunnett's multiple comparisons test) ([7]; Day 2)","Mean Diff, tumor volume growth, Control vs. peptide (Dunnett's multiple comparisons test) ([7]; Day 3)","Mean Diff, tumor volume growth, Control vs. peptide (Dunnett's multiple comparisons test) ([7]; Day 4)","Mean Diff, tumor volume growth, Control vs. peptide (Dunnett's multiple comparisons test) ([7]; Day 5)",signs of acute toxicity in tumor-bearing mice [7],survival of treated mice [7],growth rate of body weight [8],"symptoms of illness or body weight loss, acute toxicity [8]"
RRFAWIGKLQSRKVRNNIRQYRTKIVRQMRRQIFRQMKQKAE [pACP1780],0.33,0.74,0.03,0.41,0.0113,6.23 µM,significantly reduced tumor size,0,0.4906,0.7153,0.6812,1.652,2.41,no overt signs of acute toxicity were observed,all mice survived,slight decrease,no significant symptoms of illness or body weight loss
WWRRAERSVRRFFGTPIGPFPEIFGRRKAHKKKIIAKFDSVNG [pACP2283],0.51,1.00,0.0341,0.28,0.0549,10.56 µM,significantly reduced tumor size,0,0.7285,1.385,1.698,2.95,3.362,no overt signs of acute toxicity were observed,all mice survived,slight decrease,no significant symptoms of illness or body weight loss
